Tests used:
large intestine tissue [1] = assay: relative fluorescence brightness estimated from spectral sensitivity of the confocal microscope; format: in vivo, mouse; conditions: same dye concentration
Experimental: That is, this function can be used for relative estimation of the fluorescence intensity of each of the samples having different brightness levels.
The fluorescence brightness of a sample with Sodium fluorescein relative to Monascus color (yellow), as calculated on the basis of such spectral sensitivity as to give the same degree of fluorescence brightness, was 0.74 times after 10 minutes or 0.84 times after 60 minutes.

large intestine tissue [2] = assay: staining test by perfusion through the heart of a mouse; format: in vivo; conditions: 1 mg/mL
Experimental: A staining test was carried out with Monascus color (yellow) (1 mg/mL, 2 mL) by perfusion thereof through the heart of a mouse. […] The permeability of stain by this perfusion staining method was higher than the method in which the excised tissue is stained (Example 2) or the method in which colors are injected through the anus (Example 7). […] That is, the well-stained sites were the same as in Examples 7 and 8.
Sodium fluorescein (1 mg/mL) was also examined in the same manner as in Example 9.

mouse large intestine [3] = assay: mouse large intestine staining test with purified xanthomonasin A, confocal image; format: in vivo; conditions: 10 mg/mL saline, 100 μL, 5 minutes
Experimental: Using purified xanthomonasin A in Example 10, a mouse large intestine staining test was carried out. A mouse (ddY, 9-week-old, male) was anesthetized, and 100 μL xanthomonasin A (centrifuged and dried sample, 10 mg/mL saline) was injected via an injection needle into the large intestine lumen for staining. After 5 minutes, the mouse large intestine was excised and its confocal image was taken and observed under a confocal microscope (TCS SP2).

mouse large intestine [4] = assay: mouse large intestine staining test with xanthomonasin A, frozen section observation; format: in vivo; conditions: 10 mg/mL saline, 100 μL, 5 minutes; 6 μm frozen section
Experimental: Purified xanthomonasin A in Example 10 was used in a mouse large intestine staining test and for observing a frozen section. A mouse (ddY, 11-week-old, male) was anesthetized, and 100 μL xanthomonasin A (centrifuged and dried sample, 10 mg/mL saline) was injected via an injection needle into the large intestine lumen for staining. After 5 minutes, the mouse large intestine was excised, frozen and embedded in OCT compound, and the frozen section thus obtained was cut into thin slices each having a thickness of 6 μm. The thin slices were observed by hematoxylin-eosin staining and also observed for fluorescence by staining with xanthomonasin A.

mouse large intestine [5] = assay: mouse large intestine staining with xanthomonasin A, excised after 1 minute and 10 minutes; format: in vivo; conditions: 1 mg/mL saline, 100 μL
Experimental: Mice (ddY, 9-week-old, male) were anesthetized, and 100 μL xanthomonasin A (centrifuged and dried sample, 1 mg/mL saline) was injected via an injection needle into the large intestine lumen for staining. The mouse large intestines were excised after 1 minute and 10 minutes respectively, and the samples were observed under a confocal microscope (TCS SP2).

O=C([O-])c1ccccc1-c1c2ccc(=O)cc-2oc2cc([O-])ccc12.[Na+].[Na+] [Sodium fluorescein]
fluorescence brightness relative to Monascus color (yellow) (large intestine tissue [1]; after 10 minutes): 0.74 times | fluorescence brightness relative to Monascus color (yellow) (large intestine tissue [1]; after 60 minutes): 0.84 times | staining of cell nuclei (large intestine tissue [2]): could not be judged | staining of cells constituting the mucosa (large intestine tissue [2]): many of the cells constituting the mucosal tissue were stained well | staining of mucus components of goblet cells (large intestine tissue [2]): not stained

C/C=C/[C@]1(O)Cc2c(oc(O)c2C=O)C2=C(C(=O)CCCCC)C(=O)O[C@@]21C [xanthomonasin A]
quality of sectional images (mouse large intestine [3]): very vivid sectional images were obtained | staining of epithelial cells (mouse large intestine [4]): stained relatively excellently | staining of muscular plate (mouse large intestine [4]): excellently stained | stained sites, 1 minute versus 10 minutes (mouse large intestine [5]): identical in respect of stained sites | visibility (mouse large intestine [5]; stained for 10 minutes): could be further improved

Reference: patent US20070077202A1, “Histostain composition for endoscope” (PENTAX Corporation, priority 2005, published 2007)
